Laboratory results published in US20230181604A1, “Use of Mitochondria-Targeted Antioxidants to Treat Severe Inflammatory Conditions” (Mitotech S.A., priority 2020, published 2023).

Tests used:
[1] = system: mice; test: Cold shock (90 minutes at −20° C.), survival; type: in vivo
Description: (§1) SkQ1 protected mice in three different mouse models of severe critical conditions. The first critical condition was induced by injection of a suspension of isolated liver mitochondria into the mouse tail vein. The second critical condition was induced by the sharp cold shock of placing mice for 90 minutes in a −20° C. environment. The third condition was induced by administration of a toxic concentration the of lipophilic cation C12 TPP, whose formula is shown below
In the next experiment, critical condition was caused by a completely different stress, namely by cold shock resulting from incubating mice for 1.5 hours at −20° C. It can be seen in FIG. 8 that cold shock led to dramatic increase of mortality between days 5 and 8, resulting in a survival rate of 40%.
(§2) In the next series of experiments, it was investigated whether animals can be rescued by SkQ1 treatment administered simultaneously with the challenge or even after the challenge.

[2] = system: mice; test: Lethal shock by toxic dose of C12 TPP, survival; type: in vivo
Description: as §1
In the next experiment a critical condition in mice was induced by i/v injection of a toxic dose of C12 TPP (34 μmole/kg). Considering the membrane-penetrating and membrane-disruptive properties of C12 TPP, it can be expected that the lethal effect of i/v injection of C12 TPP occurs due to disruption of cells in the vascular system, including vascular endothelial cells.
This set of experiments was continued using the lethal shock was caused by toxic concentrations of C12 TPP. Two dosages of C12 TPP were used: 34 μmol/kg C12 TPP (FIG. 12) or 42 μmol/kg C12 TPP (FIG. 13). In the data shown in FIG. 12, SkQ1 (1.5 μmol/kg dosage) was administered to each of the mice both at 4.5 hours before C12 TPP and 0.5 hours after C12 TPP administration. Without SkQ1, about 80% of mice died within 32 hours after the injection of C12 TPP; with SkQ1 the death rate was reduced to 40%. In the experiment described in FIG. 13, the amount of C12 TPP was increased to 42 μmol/kg. […] In the experimental group, SkQ1 was administered once within 1 hour after C12 TPP treatment. In the SkQ1 treatment group ⅓ of the animals survived (FIG. 13).

[3] = system: mice; test: Shock by injection of isolated liver mitochondria into the tail vein, survival; type: in vivo; conditions: for Mortality after mitochondria injection: C12 TPP instead of SkQ1
Description: as §1
The injection of mitochondria had no effect on survival during the first day (100% of the animals survived). However only 60% of animals survived the next two days. This survival rate persisted for at least 16 days. […] In this experiment a strong reduction in weight was clearly observed in the first 3 days after injection of mitochondria. Then the surviving animals began to recover—mortality disappeared, and body weight began to increase. In a control experiment, C12 TPP was used instead of SkQ1. In the case of C12 TPP, 20% of mice died in the first half day after the injection of mitochondria, and in two days the mortality had grown to 80%.
as §2

[4] = system: H5N1 influenza virus (strain chicken/Kurgan/5/2005); type: in vivo, balb\c mice
[5] = SkQ1 blood concentration with subcutaneous slow-release infusion pumps; type: in vivo; conditions: Wistar rats, slow-release infusion pumps introduced subcutaneously
Description: In the next experiment SkQ1 presence in the blood was prolonged by using slow-release infusion pumps introduced subcutaneously into Wistar rats. Blood samples from these animals were taken at timepoints indicated on FIG. 2, and SkQ1 concentration was measured as described above. […] This experiment also models administration of SkQ1 using intravenous infusion.

[6] = system: CD-1 mice; test: Acute toxicity, subcutaneous administration; type: in vivo; conditions: for LD50: subcutaneous
Text: The acute toxicity of SkQ1 solution administered by subcutaneous administration was studied in SPF male and female CD-1 mice.

[7] = system: IL-6; test: IL-6 concentration in blood after shock; type: in vivo, mice; conditions: intravenous injection of liver mitochondria, i/p SkQ1
[8] = system: CD-1 mice; test: 28-day chronic toxicity with 14-day recovery, subcutaneous; type: in vivo
Description: SkQ1 solution 28-day chronic toxicity with 14-day recovery was studied in SPF male and female CD-1 mice at SkQ1 dosage of 0.6, 2.5, and 10 mg/kg administered subcutaneously, once daily. At 2.5 mg SkQ1/kg no adverse effects were identified (NOAEL) either at the end of the dosing or at the end of recovery. […] Peritonitis stemmed from the local ulcerative action of the formulation, while the adverse reactions of systems/organs were apparently the consequences of peritonitis.

[9] = system: human vascular endothelial cells; test: VE-cadherin study of endothelial cell-to-cell contacts after SIRS/sepsis patient serum (western blot, fluorescence microscopy); type: cell-based
Description: The mitochondrially targeted antioxidants disclosed herein can prevent deconstruction of cell-to-cell contacts between human vascular endothelial cells in culture when these cells are treated with blood serum samples from patients with SIRS or sepsis. Results of a VE-cadherin western blot are presented on FIG. 3, wherein a cell culture of human endothelial cells is pretreated with different dosages of SkQ1, then exposed to serum from patients diagnosed with sepsis. […] In FIG. 4, blood samples are taken from patients with diagnosed SIRS, with the patients age 18-75 years. A cell culture of human endothelial cells is pretreated with different dosages of SkQ1, then treated with 5-10% serum from the SIRS blood samples. At the top of FIG. 4, the VE-cadherin (fluorescence microscopy) c resembles the VE-cadherin at the bottom of FIG. 4 (SIRS serum+200 nM SkQ1). Actin and nucleus visualizations in FIG. 4 correspond with VE-cadherin observations.
Blood samples were taken from patients ages 18-75 years with diagnosed SIRS. Cell cultures of human endothelial cells were pretreated with different amounts of SkQ1, after which the cultures were treated with 5-10% serum from the SIRS blood samples. A one hour VE-cadherin study was performed by fluorescent microscopy followed by western-blot analysis. Results of the experiment are presented on FIG. 3 (western blot) and FIG. 4 (microscopy).

[10] = SkQ1 bioavailability study, LCMS/MS blood concentration after i/v, i/p, s/c injection; type: in vivo; conditions: Wistar rats, 2 mg\kg
Description: The bioavailability of SkQ1 was determined after using different methods of administration. SPF category Wistar rats were used. SkQ1 concentration in blood samples was measured using an LCMS/MS method SkQ1 was administered at 2 mg\kg, and blood samples were taken at the indicated time points. Administration was by intravenous injection (FIG. 1A), intraperitoneal injection (FIG. 1B), or subcutaneous injection (FIG. 1C). Total SkQ1 dose was calculated as area under the curve (AUC) as shown at left of FIG. 1D. SkQ1 bioavailability was normalized to that of i/v administration and is shown at the right side of FIG. 1D.

[11] = system: TNFα; test: TNFα concentration in blood after shock; type: in vivo, mice; conditions: intravenous injection of liver mitochondria, i/p SkQ1
[12] = H5N1-infected mice, i/p SkQ1 from day 2
[13] = SkQ1 injected one minute after shock stimulus

For `CCCCCCCCCCCC[P+](c1ccccc1)(c1ccccc1)c1ccccc1` [C12 TPP, reference compound], the “Mortality after cold shock” value ([1]; premedication and treatment, by the sixth day) was 100%, the “Mice died after C12 TPP” value ([2]; 34 μmol/kg C12 TPP without SkQ1, within 32 hours) was “about 80%” and the “Mortality caused by C12 TPP” value ([2]; 34 μmol/kg i/v, within 1 day) was 90%. The “Death after C12 TPP” value ([2]; 42 μmol/kg C12 TPP, control group, within 1.5 hours) was “all 12 animals died”, the “Mortality after mitochondria injection” value ([3]; first half day after injection) was 20% and the “Mortality after mitochondria injection” value ([3]; in two days) was 80%.
For SkQ1, the “Death caused by influenza virus infection” value [4, 12] was “delayed”, the “Development of bad health condition” value [4, 12] was “delayed” and the “Protection against critical condition” value ([4]; intraperitoneal SkQ1 1000 nmoles/kg and 3000 nmoles/kg) was “protects against the critical condition”. For the same compound, the “SkQ1 concentration in the blood with slow release” value [5] was “can be stabilized”, the “Findings in mice surviving toxic doses” value ([6]; 14 days after administration of toxic doses) was “signs of hepato- and nephrotoxicity” and the “Cause of lethal effect of high doses” value ([6]; first hours after subcutaneous administration) was “respiratory arrest”. The LD50 ([6]; female CD-1 mice) was 26.8 (23-31) mg SkQ1/kg, the LD50 ([6]; male CD-1 mice) was 31 (20.5-37.2) mg SkQ1/kg and the “Increase of blood concentration of IL-6” value [7] was “almost completely suppressed”. The “Mortality from cold shock” value [1, 13] was “significantly reduced”, the “Death of animals after cold shock” value ([1]; premedication and after-shock treatment) was “completely prevented” and the “Animals died (due to peritonitis)” value ([8]; 10 mg/kg subcutaneous once daily, 28 days) was “≈ 15%”. For the same compound, the “NOAEL (no adverse effects identified)” value ([8]; 28 days subcutaneous once daily, 14-day recovery) was 2.5 mg SkQ1/kg, the “VE-cadherin western blot intensity versus control” value ([9]; 200 nM SkQ1 and sepsis patient serum) was “about equal intensity to the control” and the “VE-cadherin fluorescence microscopy versus control” value ([9]; SIRS serum + 200 nM SkQ1) was “resembles”. For the same compound, the “Deconstruction of cell-to-cell contacts between endothelial cells” value ([9]; cells treated with serum from patients with SIRS or sepsis, SkQ1 pretreatment) was “prevented”, the “SkQ1 bioavailability for intraperitoneal administration, of the bioavailability after intravenous administration” value ([10]; i/p, AUC normalized to i/v) was 35% and the “Persistence of SkQ1 in blood after injection” value ([10]; i/v, i/p or s/c injection) was “rapidly disappears from the blood”. For the same compound, the “SkQ1 bioavailability for subcutaneous administration, of the bioavailability after intravenous administration” value ([10]; subcutaneous, AUC normalized to i/v) was 44%, the “Effect on mortality caused by C12 TPP” value ([2]; 34 μmol/kg C12 TPP, SkQ1 pretreatment) was “prevented” and the “Death rate after C12 TPP with SkQ1” value ([2]; 34 μmol/kg C12 TPP, SkQ1 1.5 μmol/kg 4.5 hours before and 0.5 hours after) was 40%. For the same compound, the “Fraction of animals survived” value ([2]; 42 μmol/kg C12 TPP, SkQ1 once within 1 hour after C12 TPP) was “⅓”, the “Increase of blood concentration of TNFα” value [11] was “almost completely suppressed” and the “Mortality from injection of mitochondria” value [3, 13] was “significantly reduced”. For the same compound, the “Survival after mitochondria injection” value ([3]; treatment five days before and five days after mitochondria injection) was 90%.
